Test results: PubChem BioAssay (NCI)
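Test compounds were applied to cells in 96-well plates for 48 hours at 5 doses. The concentration for full growth arrest is given as TGI.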

Legend:
Assay in all cases: inhibition of tumour cell growth, NCI panel, 48 h
OVCAR-5 ovarian = tested on: OVCAR-5 ovarian
HS 578T breast = tested on: HS 578T breast
BT-549 breast = tested on: BT-549 breast
DU-145 prostate = tested on: DU-145 prostate
SN12C renal = tested on: SN12C renal
SK-MEL-2 melanoma = tested on: SK-MEL-2 melanoma
LOX IMVI melanoma = tested on: LOX IMVI melanoma
CCRF-CEM leukemia = tested on: CCRF-CEM leukemia
COLO 205 colon = tested on: COLO 205 colon
SNB-75 CNS = tested on: SNB-75 CNS
IGROV1 ovarian = tested on: IGROV1 ovarian
SR leukemia = tested on: SR leukemia
RPMI-8226 leukemia = tested on: RPMI-8226 leukemia
NCI-H226 lung = tested on: NCI-H226 lung
NCI/ADR-RES ovarian = tested on: NCI/ADR-RES ovarian
SF-295 CNS = tested on: SF-295 CNS
M14 melanoma = tested on: M14 melanoma
MDA-N = tested on: MDA-N
ACHN renal = tested on: ACHN renal
OVCAR-8 ovarian = tested on: OVCAR-8 ovarian
A498 renal = tested on: A498 renal
NCI-H522 lung = tested on: NCI-H522 lung
TK-10 renal = tested on: TK-10 renal
NCI-H460 lung = tested on: NCI-H460 lung
MDA-MB-231 breast = tested on: MDA-MB-231 breast
SK-OV-3 ovarian = tested on: SK-OV-3 ovarian
SW-620 colon = tested on: SW-620 colon
U251 CNS = tested on: U251 CNS
OVCAR-4 ovarian = tested on: OVCAR-4 ovarian
SF-539 CNS = tested on: SF-539 CNS
SK-MEL-28 melanoma = tested on: SK-MEL-28 melanoma
T-47D breast = tested on: T-47D breast
EKVX NSCLC = tested on: EKVX NSCLC
UACC-62 melanoma = tested on: UACC-62 melanoma
HCC-2998 colon = tested on: HCC-2998 colon
HT29 colon = tested on: HT29 colon
MALME-3M melanoma = tested on: MALME-3M melanoma
OVCAR-3 ovarian = tested on: OVCAR-3 ovarian
K-562 leukemia = tested on: K-562 leukemia
HCT-116 colon = tested on: HCT-116 colon
SNB-19 CNS = tested on: SNB-19 CNS
SF-268 CNS = tested on: SF-268 CNS
CAKI-1 renal = tested on: CAKI-1 renal
KM12 colon = tested on: KM12 colon
786-0 renal = tested on: 786-0 renal
NCI-H23 lung = tested on: NCI-H23 lung
A549 NSCLC = tested on: A549 NSCLC
HOP-92 NSCLC = tested on: HOP-92 NSCLC
RXF 393 renal = tested on: RXF 393 renal
HOP-62 NSCLC = tested on: HOP-62 NSCLC
MOLT-4 leukemia = tested on: MOLT-4 leukemia
MDA-MB-435 = tested on: MDA-MB-435
PC-3 prostate = tested on: PC-3 prostate
HCT-15 colon = tested on: HCT-15 colon
UO-31 renal = tested on: UO-31 renal
UACC-257 melanoma = tested on: UACC-257 melanoma
MCF7 breast = tested on: MCF7 breast
SK-MEL-5 melanoma = tested on: SK-MEL-5 melanoma
HL-60(TB) leukemia = tested on: HL-60(TB) leukemia
DLD-1 colon = tested on: DLD-1 colon
LXFL 529 NSCLC = tested on: LXFL 529 NSCLC
M19-MEL melanoma = tested on: M19-MEL melanoma
KM20L2 colon = tested on: KM20L2 colon
DMS 273 small cell lung = tested on: DMS 273 small cell lung
SNB-78 CNS = tested on: SNB-78 CNS
DMS 114 small cell lung = tested on: DMS 114 small cell lung

Measured: TGI

CCCCCC(=O)Nc1n[nH]nc1C#N
> 100 µM: OVCAR-5 ovarian | HS 578T breast | BT-549 breast | DU-145 prostate | SN12C renal | SK-MEL-2 melanoma | LOX IMVI melanoma | CCRF-CEM leukemia | COLO 205 colon | SNB-75 CNS | IGROV1 ovarian | SR leukemia | RPMI-8226 leukemia | NCI-H226 lung | NCI/ADR-RES ovarian | SF-295 CNS | M14 melanoma | MDA-N | ACHN renal | OVCAR-8 ovarian | A498 renal | NCI-H522 lung | TK-10 renal | NCI-H460 lung | MDA-MB-231 breast | SK-OV-3 ovarian | SW-620 colon | U251 CNS | OVCAR-4 ovarian | SF-539 CNS | SK-MEL-28 melanoma | T-47D breast | EKVX NSCLC | UACC-62 melanoma | HCC-2998 colon | HT29 colon | MALME-3M melanoma | OVCAR-3 ovarian | K-562 leukemia | HCT-116 colon | SNB-19 CNS | SF-268 CNS | CAKI-1 renal | KM12 colon | 786-0 renal | NCI-H23 lung | A549 NSCLC | HOP-92 NSCLC | RXF 393 renal | HOP-62 NSCLC | MOLT-4 leukemia | MDA-MB-435 | PC-3 prostate | HCT-15 colon | UO-31 renal | UACC-257 melanoma | MCF7 breast | SK-MEL-5 melanoma | HL-60(TB) leukemia

COc1ccc(C(=O)N2c3ccccc3N(C)n3cccc3C2CC(=O)O)cc1 (configuration not stated)
> 100 µM: OVCAR-5 ovarian | DLD-1 colon | SN12C renal | SK-MEL-2 melanoma | LOX IMVI melanoma | LXFL 529 NSCLC | CCRF-CEM leukemia | COLO 205 colon | SNB-75 CNS | IGROV1 ovarian | RPMI-8226 leukemia | NCI-H226 lung | SF-295 CNS | M19-MEL melanoma | M14 melanoma | KM20L2 colon | ACHN renal | OVCAR-8 ovarian | A498 renal | NCI-H522 lung | TK-10 renal | NCI-H460 lung | SK-OV-3 ovarian | SW-620 colon | OVCAR-4 ovarian | SF-539 CNS | SK-MEL-28 melanoma | EKVX NSCLC | UACC-62 melanoma | HCC-2998 colon | HT29 colon | MALME-3M melanoma | OVCAR-3 ovarian | K-562 leukemia | SNB-19 CNS | SF-268 CNS | CAKI-1 renal | KM12 colon | 786-0 renal | NCI-H23 lung | A549 NSCLC | HOP-92 NSCLC | RXF 393 renal | HOP-62 NSCLC | MOLT-4 leukemia | DMS 273 small cell lung | SNB-78 CNS | DMS 114 small cell lung | HCT-15 colon | UO-31 renal | UACC-257 melanoma | SK-MEL-5 melanoma | HL-60(TB) leukemia
